Like-named read-outs stand apart in the source and are kept apart here.
Biological target: T1, human GPR119 receptor (Homo sapiens, UniProt Q8TDV5, S329A/T327A)
T1 construct: N-terminal leader […]; expressed in transfected cells
T1 sequence (Q8TDV5 with tags, fused parts or gaps T327A/S329A): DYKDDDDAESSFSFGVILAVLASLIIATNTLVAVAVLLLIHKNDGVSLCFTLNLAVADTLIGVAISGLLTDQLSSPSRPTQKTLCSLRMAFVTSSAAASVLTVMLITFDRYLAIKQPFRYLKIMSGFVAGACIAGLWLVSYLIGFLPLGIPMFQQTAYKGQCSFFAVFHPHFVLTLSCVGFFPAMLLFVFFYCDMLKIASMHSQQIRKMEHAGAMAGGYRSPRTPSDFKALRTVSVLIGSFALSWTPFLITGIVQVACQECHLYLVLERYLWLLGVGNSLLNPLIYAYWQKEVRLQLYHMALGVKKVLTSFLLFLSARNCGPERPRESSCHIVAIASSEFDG
Test: cAMP assay (LANCE cAMP-384) in HEK293 cells stably expressing mutant human GPR119 receptor
Format: cell-based
Settings: for activation at 10 µM: HEK293, 20 min
Summary of the method: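 HEK293 cells stably expressing human GPR119 (T327A/S329A, modified N-terminus), 1000 cells/well, exposed to compound for 20 min at 37° C. cAMP quantified by LANCE TR-FRET against a standard curve; EC50 from 12 points, 30 μM to 100 pM, or % stimulation at 10 μM.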

[1] = the 43rd table, compounds 75-1 to 75-38, read-out: EC50
[2] = cAMP accumulation, HEK293 cells stably expressing mutant human GPR119, read-out: EC50
[3] = the 19th table, unit inferred, read-out: EC 50
[4] = the 36th table, compounds 66-1 to 66-51, read-out: EC50
[5] = the 34th table, compounds 65-1 to 65-24, read-out: EC50

CC(C)OC(=O)N1CCC(ON=C2CCN(c3cc(F)c(CC(=O)N4CCC(CN5CCCCC5)C4)cc3F)CC2)CC1 (centres unmarked) [Example 75-35]
EC50 [1]: 0.171 µM

CC(C)OC(=O)N1CCC(ON=C2CCN(c3cc(F)c(CN4CCN(C(=O)OC(C)(C)C)CC4=O)cc3F)CC2)CC1 [Example 15-3]
EC50 [2]: 0.408 µM

CN1CCCC(OC(=O)N2CCC(ON=C3CCN(c4ccc(S(C)(=O)=O)cc4F)CC3)CC2)C1 (centres unmarked) [Example 64-19]
EC50 (the 33rd table, read-out: EC50): > 10 µM

CCc1cnc(N2CCC(ON=C3CCN(c4cc(F)c(C(=O)N5CCC[C@@H]5CNC)cc4F)CC3)CC2)nc1 [Example 29-135]
EC50 [3]: 0.297 µM

CC(C)OC(=O)N1CCC(ON=C2CCN(c3cc(F)c(-c4ncc[nH]4)cc3F)CC2)CC1 [Example 27-22]
EC50 [2]: 0.054 µM

CS(=O)(=O)c1ccc(N2CCC(=NOC3CCN(Cc4ccccc4Cl)CC3)CC2)c(F)c1 [Example 66-17]
EC50 [4]: 0.661 µM

CC(C)OC(=O)N1CCC(ON=C2CCN(c3ccnc(Cl)n3)CC2)CC1 [Example 2-46]
EC50 [2]: 1.88 µM

Cc1ccc(N2CCC(ON=C3CCN(c4ccc(S(C)(=O)=O)cc4F)CC3)CC2)cn1 [Example 67-3]
EC50 (the 39th table, compounds 67-1 to 67-3, read-out: EC50): 0.745 µM

COC(=O)/C=C/c1cc(F)c(N2CCC(=NOC3CCN(C(=O)OC(C)C)CC3)CC2)cc1F [Example 39-1, 4-{1-[2,5-Difluoro-4-((E)-2-methoxycarbonyl-vinyl)-phenyl]-piperidin-4-ylideneaminooxy}-piperidine-1-carboxylic acid isopropyl ester]
EC50 (the 25th table, read-out: EC50): 0.046 µM

CCN(CC)C(=O)CN1CCC(ON=C2CCN(c3ccc(S(C)(=O)=O)cc3F)CC2)CC1 [Example 65-1, N,N-Diethyl-2-{4-[1-(2-fluoro-4-methanesulfonyl-phenyl)-piperidin-4-ylideneaminooxy]-piperidin-1-yl}-acetamide]
EC50 [5]: > 10 µM

COc1ccc(-c2cc(F)c(N3CCC(=NOC4CCN(C(=O)OC(C)C)CC4)CC3)cc2F)cn1 [Example 27-33]
EC50 [2]: 0.891 µM

CC(C)OC(=O)N1CCC(ON=C2CCN(c3cc(F)c(-n4cccn4)cc3F)CC2)CC1 [Example 22-3]
EC50 [2]: 0.062 µM

CS(=O)(=O)c1ccc(N2CCC(=NOC3CCN(C(=S)NC4CC4)CC3)CC2)c(F)c1 [Example 65-10]
EC50 [5]: > 10 µM

CS(=O)(=O)c1ccc(N2CCC(=NOC3CCN(Cc4ccc(C(F)(F)F)cc4)CC3)CC2)c(F)c1 [Example 66-31]
EC50 [4]: 0.354 µM

CC(C)OC(=O)N1CCC(ON=C2CCN(c3ncc(N4CCCC4=O)cc3F)CC2)CC1 [Example 51-3]
EC50 (the 28th table, read-out: EC50): 0.401 µM

CS(=O)(=O)c1ccc(N2CCC(=NOC3CCN(C(=O)OCCC4CCCCC4)CC3)CC2)c(F)c1 [Example 64-42]
EC50 (the 33rd table, read-out: EC50): 0.35 µM

CC(C)OC(=O)N1CCC(ON=C2CCN(c3cc(F)c(CC(=O)N4CCC[C@H]4CN4CCCC4)cc3F)CC2)CC1 [Example 75-29]
EC50 [1]: 2.91 µM

COc1ncc(-c2cc(F)c(N3CCC(=NOC4CCN(C(=O)OC(C)C)CC4)CC3)cc2F)c(OC)n1 [Example 27-31]
activation at 10 µM (single concentration 10 μM, given where no EC50 value could be determined, read-out: % stimulation at 10 μM): 70%

Cc1c(CN2CCC(ON=C3CCN(c4ccc(S(C)(=O)=O)cc4F)CC3)CC2)cnn1C [Example 66-7]
EC50 [4]: > 10 µM

CC(C)OC(=O)N1CCC(ON=C2CCN(c3cc(F)c(CC(=O)N4CCC[C@H](N)C4)cc3F)CC2)CC1 [Example 75-13]
EC50 [1]: 0.116 µM

Cc1cc(N2CCC(=NOC3CCN(C(=O)OC(C)C)CC3)CC2)ccn1 [Example 2-6]
EC50 [2]: 1.48 µM

CCc1cnc(N2CCC(ON=C3CCN(c4cc(F)c(C(=O)N5CCCNCC5)cc4F)CC3)CC2)nc1 [Example 29-114]
EC50 [3]: 0.392 µM

CCc1cnc(N2CCC(ON=C3CCN(c4cc(F)c(C(=O)N5CCCCC5CNC)cc4F)CC3)CC2)nc1 (centres unmarked) [Example 29-136]
EC50 [3]: 0.12 µM

CCc1cnc(N2CCC(ON=C3CCN(c4cc(F)c(C(=O)N5CCC[C@@H](N)C5)cc4F)CC3)CC2)nc1 [Example 29-88]
EC50 [3]: 0.221 µM

CN(C)CCCOC(=O)N1CCC(ON=C2CCN(c3ccc(S(C)(=O)=O)cc3F)CC2)CC1 [Example 64-15]
EC50 (the 33rd table, read-out: EC50): > 10 µM

CS(=O)(=O)c1ccc(N2CCC(=NOC3CCN(Cc4cccnc4Cl)CC3)CC2)c(F)c1 [Example 66-51]
activation at 10 µM (at 10 μM, printed in EC50 column of the 36th table, read-out: stimulation in % at 10 μM): 66%

CC(C)OC(=O)N1CCC(ON=C2CCN(c3cc(F)c(CC(=O)NC[C@@H]4CCCN4)cc3F)CC2)CC1 [Example 75-10]
EC50 [1]: 0.203 µM

CS(=O)(=O)c1ccc(N2CCC(=NOC3CCN(C(=O)c4ccccc4)CC3)CC2)c(F)c1 [Example 65-21]
EC50 [5]: 0.747 µM

CS(=O)(=O)c1ccc(N2CCC(=NOC3CCN(c4ccccn4)CC3)CC2)c(F)c1 [Example 63-1, 1-(2-Fluoro-4-methanesulfonyl-phenyl)-piperidin-4-one O-(3,4,5,6-tetrahydro-2H-[1,2′]bipyridinyl-4-yl)-oxime]
EC50 (the 32nd table, read-out: EC50): 0.459 µM

CS(=O)(=O)c1ccc(N2CCC(=NOC3CCN(C(=O)Nc4ccccc4)CC3)CC2)c(F)c1 [Example 65-17]
EC50 [5]: 2.04 µM

CC(C)OC(=O)N1CCC(ON=C2CCN(c3ncc(CO)cc3F)CC2)CC1 [Example 53-1, 4-(3′-Fluoro-5′-hydroxymethyl-2,3,5,6-tetrahydro-[1,2′]bipyridinyl-4-ylideneaminooxy)-piperidine-1-carboxylic acid isopropyl ester]
EC50 [2]: 0.224 µM

CS(=O)(=O)c1ccc(N2CCC(=NOC3CCN(C(=S)NC4CCCCC4)CC3)CC2)c(F)c1 [Example 65-9]
EC50 [5]: 1.8 µM

CC(C)[C@H](N)COC(=O)N1CCC(ON=C2CCN(c3ccc(S(C)(=O)=O)cc3F)CC2)CC1 [Example 64-37]
EC50 (the 33rd table, read-out: EC50): > 10 µM

CC(C)OC(=O)N1CCC(ON=C2CCN(c3cccc(S(C)(=O)=O)c3)CC2)CC1 [Example 32-3]
EC50 [2]: > 10 µM

CS(=O)(=O)c1ccc(N2CCC(=NOC3CCN(c4ccc(Br)cn4)CC3)CC2)c(F)c1 [Example 63-20]
EC50 (the 32nd table, read-out: EC50): 0.387 µM

CC(C)OC(=O)N1CCC(ON=C2CCN(c3cc(F)c(CNC=O)cc3F)CC2)CC1 [Example 16-8]
EC50 [2]: 0.12 µM

CS(=O)(=O)c1ccc(N2CCC(=NOC3CCN(C(=O)Oc4ccccc4)CC3)CC2)c(F)c1 [Example 65-12]
EC50 [5]: 0.057 µM

CCS(=O)(=O)NCc1cc(F)c(N2CCC(=NOC3CCN(C(=O)OC(C)C)CC3)CC2)cc1F [Example 16-6]
EC50 [2]: 0.113 µM

CCc1cnc(N2CCC(ON=C3CCN(c4cc(F)c(CC(=O)N5CCC(CN(C)C)CC5)cc4F)CC3)CC2)nc1 [Example 77-14]
EC50 (the 44th table, compounds 77-1 to 77-14, read-out: EC50): 0.006 µM

Cc1noc(C)c1-c1cc(F)c(N2CCC(=NOC3CCN(C(=O)OC(C)C)CC3)CC2)cc1F [Example 27-2]
EC50 [2]: > 10 µM

CC(C)OC(=O)N1CCC(ON=C2CCN(c3ncc(CS(C)(=O)=O)cc3F)CC2)CC1 [Example 54-7]
EC50 (the 30th table, read-out: EC50): 0.484 µM

CC(C)OC(=O)N1CCC(ON=C2CCN(c3ncccc3F)CC2)CC1 [Example 2-37]
EC50 [2]: 0.63 µM

CC(C)(C)COC(=O)N1CCC(ON=C2CCN(c3ccc(S(C)(=O)=O)cc3F)CC2)CC1 [Example 65-7]
EC50 [5]: 0.057 µM

CS(=O)(=O)c1ccc(N2CCC(=NOC3CCN(C(=O)OCCN4CCCCC4)CC3)CC2)c(F)c1 [Example 64-28]
EC50 (the 33rd table, read-out: EC50): > 10 µM

CC(C)(C)OC(=O)N1CCC(ON=C2CCN(c3ccc(S(C)(=O)=O)cc3F)CC2)CC1 [Example 1-1, tert-Butyl 4-[1-(2-Fluoro-4-methanesulfonylphenyl)piperidin-4-ylideneaminooxy]piperidine-1-carboxylate]
EC50 [2]: 0.029 µM

CC(C)OC(=O)N1CCC(ON=C2CCN(c3cc(F)c(C(=O)NCCN(C)C)cc3F)CC2)CC1 [Example 29-2]
EC50 (the 15th table, read-out: EC50): 0.45 µM

CC(C)N(CCOC(=O)N1CCC(ON=C2CCN(c3ccc(S(C)(=O)=O)cc3F)CC2)CC1)C(C)C [Example 64-32]
EC50 (the 33rd table, read-out: EC50): > 10 µM
